“And” between values parts separate entries of the source, which are not always exact repeats. Equal values may be shown once.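 How tested: cells in 96-well plates exposed to compound for 48 hours at five concentrations. Abbreviation: GI50, concentration required for 50% inhibition of growth. The concentration for full growth arrest is given as TGI.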
What was measured:
Test in all cases: inhibition of tumour cell growth, NCI panel, 48 h
COLO 205 colon = test system: COLO 205 colon
SK-MEL-28 melanoma = test system: SK-MEL-28 melanoma
A549 NSCLC = test system: A549 NSCLC
HCT-116 colon = test system: HCT-116 colon
RPMI-8226 leukemia = test system: RPMI-8226 leukemia
SNB-19 CNS = test system: SNB-19 CNS
TK-10 renal = test system: TK-10 renal
HOP-62 NSCLC = test system: HOP-62 NSCLC
HOP-92 NSCLC = test system: HOP-92 NSCLC
NCI-H226 lung = test system: NCI-H226 lung

O=[N+]([O-])C1C(c2ccccc2)C12c1ccccc1-c1ccccc12 (stereo not drawn)
GI50 (COLO 205 colon): 1.85 µM
TGI (COLO 205 colon): 10.9 µM
GI50 (SK-MEL-28 melanoma): 4.18 µM
TGI (SK-MEL-28 melanoma): 22.5 µM
GI50 (A549 NSCLC): 1.91 µM
TGI (A549 NSCLC): > 100 µM
GI50 (HCT-116 colon): 0.371 µM
TGI (HCT-116 colon): 11.6 µM
GI50 (RPMI-8226 leukemia): 0.322 µM
TGI (RPMI-8226 leukemia): 1.51 µM
GI50 (SNB-19 CNS): 12.4 µM
TGI (SNB-19 CNS): > 100 µM
GI50 (TK-10 renal): 2 µM
TGI (TK-10 renal): 16.6 µM
GI50 (HOP-62 NSCLC): 0.573 µM
TGI (HOP-62 NSCLC): 17.6 µM
GI50 (HOP-92 NSCLC): 0.25 µM
TGI (HOP-92 NSCLC): 2.05 µM
GI50 (NCI-H226 lung): 2.05 µM
TGI (NCI-H226 lung): 14.5 µM

COc1cc(O)c([C@@H]2C[C@H](CCc3ccc(O)cc3)O[C@H](c3ccc(O)cc3)C2)c(O)c1C(=O)/C=C/c1ccc(O)cc1
GI50 (COLO 205 colon): 2.51 µM
TGI (COLO 205 colon): 5.4 µM
GI50 (SK-MEL-28 melanoma): 3.28 µM
TGI (SK-MEL-28 melanoma): 12 µM
GI50 (A549 NSCLC): 3.33 µM
TGI (A549 NSCLC): 25.1 µM
GI50 (HCT-116 colon): 2.74 µM
TGI (HCT-116 colon): 8.27 µM
GI50 (RPMI-8226 leukemia): 2.11 µM
TGI (RPMI-8226 leukemia): 4.68 µM
GI50 (SNB-19 CNS): 3.37 µM
TGI (SNB-19 CNS): 10.6 µM
GI50 (TK-10 renal): 3.94 µM
TGI (TK-10 renal): 13.5 µM
GI50 (HOP-62 NSCLC): 2.77 µM
TGI (HOP-62 NSCLC): 6.02 µM
GI50 (HOP-92 NSCLC): 2.2 µM
TGI (HOP-92 NSCLC): 4.96 µM
GI50 (NCI-H226 lung): 7.04 µM
TGI (NCI-H226 lung): 21.5 µM

COc1cccc(C2CC(C)(N3CCCC3)Oc3cc4c(cc32)OCO4)c1O (stereo not drawn)
TGI (COLO 205 colon): 39.7 µM
TGI (SK-MEL-28 melanoma): > 51.5 µM
TGI (A549 NSCLC): > 100 µM
TGI (HCT-116 colon): > 63.6 µM
TGI (RPMI-8226 leukemia): > 81 µM
TGI (SNB-19 CNS): > 100 µM
TGI (TK-10 renal): > 93.9 µM
TGI (HOP-62 NSCLC): 90.1 µM
TGI (HOP-92 NSCLC): > 100 µM
TGI (NCI-H226 lung): 55.9 µM

COc1ccc(-c2nn3ncccc3c2-c2ccnc(Nc3ccc(Cl)c(C(F)(F)F)c3)n2)cc1
GI50 (COLO 205 colon): 12.7 µM
TGI (COLO 205 colon): > 25 µM
GI50 (SK-MEL-28 melanoma): 16.9 µM
TGI (SK-MEL-28 melanoma): > 25 µM
GI50 (A549 NSCLC): 10.8 µM
TGI (A549 NSCLC): > 25 µM
GI50 (HCT-116 colon): 8.01 µM
TGI (HCT-116 colon): > 25 µM
GI50 (RPMI-8226 leukemia): 8.28 µM
TGI (RPMI-8226 leukemia): > 25 µM
GI50 (SNB-19 CNS): 16 µM
TGI (SNB-19 CNS): > 25 µM
GI50 (TK-10 renal): 13.2 µM
TGI (TK-10 renal): > 25 µM
GI50 (HOP-62 NSCLC): 15.5 µM
TGI (HOP-62 NSCLC): > 25 µM
GI50 (HOP-92 NSCLC): 4.54 µM
TGI (HOP-92 NSCLC): 19.8 µM
GI50 (NCI-H226 lung): 10.5 µM
TGI (NCI-H226 lung): > 25 µM

CN1CCN(CN2C(=O)C3C4C=CC(C3C2=O)C2C3C(=O)N(CN5CCN(C)CC5)C(=O)C3C42)CC1 (stereo not drawn)
TGI (COLO 205 colon): 33.2 µM and 34.5 µM and 35.3 µM
TGI (SK-MEL-28 melanoma): 49.3 µM and > 61.8 µM and 35.3 µM
TGI (A549 NSCLC): 90.5 µM and 57.5 µM and 36.2 µM
TGI (HCT-116 colon): 33.4 µM and 36.4 µM and 27.3 µM
TGI (RPMI-8226 leukemia): 59.2 µM and 53.2 µM and 71.5 µM
GI50 (SNB-19 CNS): 31.7 µM and 53.2 µM and 76.9 µM
TGI (SNB-19 CNS): > 100 µM
TGI (TK-10 renal): > 100 µM
TGI (HOP-62 NSCLC): > 100 µM
GI50 (HOP-92 NSCLC): 35.7 µM and > 96.5 µM and > 100 µM
TGI (HOP-92 NSCLC): 94.8 µM and > 100 µM
GI50 (NCI-H226 lung): 33.5 µM and > 57.7 µM and 76.8 µM
TGI (NCI-H226 lung): > 100 µM

Cc1ccc(OCC(=O)N2N=C(c3ccccc3)CC2(O)c2ccccc2)cc1 (stereo not drawn)
TGI (COLO 205 colon): > 100 µM
TGI (SK-MEL-28 melanoma): > 100 µM
TGI (A549 NSCLC): 82.8 µM
TGI (HCT-116 colon): > 100 µM
TGI (RPMI-8226 leukemia): > 100 µM
TGI (SNB-19 CNS): > 100 µM
TGI (TK-10 renal): > 100 µM
TGI (HOP-62 NSCLC): 46 µM
TGI (HOP-92 NSCLC): > 100 µM
TGI (NCI-H226 lung): 52.5 µM

N=C1C(c2nc(-c3ccc(Br)cc3)cs2)=C(O)CN1Cc1cccnc1
GI50 (COLO 205 colon): 11.9 µM
TGI (COLO 205 colon): 38.4 µM
GI50 (SK-MEL-28 melanoma): 15.7 µM
TGI (SK-MEL-28 melanoma): 51.7 µM
GI50 (A549 NSCLC): 26.6 µM
TGI (A549 NSCLC): > 100 µM
GI50 (HCT-116 colon): 1.75 µM
TGI (HCT-116 colon): 24 µM
GI50 (RPMI-8226 leukemia): 2.88 µM
TGI (RPMI-8226 leukemia): 76.5 µM
GI50 (SNB-19 CNS): 40.1 µM
TGI (SNB-19 CNS): > 100 µM
GI50 (TK-10 renal): 2.23 µM
TGI (TK-10 renal): 45.3 µM
GI50 (HOP-62 NSCLC): 17.1 µM
TGI (HOP-62 NSCLC): > 100 µM
GI50 (HOP-92 NSCLC): 22.2 µM
TGI (HOP-92 NSCLC): 84.1 µM
GI50 (NCI-H226 lung): 11.2 µM
TGI (NCI-H226 lung): 33.3 µM

C=CCn1c2c(c3ccccc3c1=O)C(=O)c1ccccc1-2
TGI (COLO 205 colon): > 100 µM
TGI (SK-MEL-28 melanoma): > 100 µM
TGI (A549 NSCLC): > 100 µM
TGI (HCT-116 colon): > 100 µM
TGI (RPMI-8226 leukemia): > 100 µM
TGI (SNB-19 CNS): > 100 µM
TGI (TK-10 renal): > 100 µM
TGI (HOP-62 NSCLC): > 100 µM
TGI (HOP-92 NSCLC): > 100 µM
TGI (NCI-H226 lung): > 100 µM
